Assay results as given in patent US20240016765A1, “Use of an alkaloid compound in the preparation of products for the prevention and/or treatment of cardiac damage” (NORTHWEST INSTITUTE OF PLATEAU BIOLOGY, CHINESE ACADEMY OF …, priority 2021, published 2024).

Key:
Type in all cases: cell-based
Cleaved-Caspase-3 = assay: Western blot of Cleaved-Caspase-3 in DOX-treated H9c2 cardiomyocytes; settings: FIG. 3
Experimental: (§1) (2) Incubate H9c2 cells with alkaloid compound I for 1 hour, then add […] DOX and incubate for 24 hours; extract the proteins, proceed with hydrolysis and collect the resulting solution, centrifuge at 12000 rpm for 15 minutes, collect the supernatant and discard the precipitate, store under −80° C. until analysis. Perform SDS-PAGE electrophoresis (Stepl voltage set at 80V for 30 minutes, followed by Step2 voltage set at 120V for 180 minutes), using 5% concentrated gel. Carry out membrane transfer using a PVDF membrane, with a current of 80 mA for 30 minutes. Then, conduct the closure and hybridization by using 5% skim milk powder for 1 hour of closure, followed by overnight incubation with primary antibody, and 1-2 hours of incubation with secondary antibody at room temperature with gentle shaking. Finally, visualize the proteins by using ECL reagent and observe the expression of Caspase-3 and p-JNK/JNK proteins using a gel imaging system.

p-JNK = assay: Western blot of p-JNK/JNK in DOX-treated H9c2 cardiomyocytes; settings: FIG. 4; for p-JNK expression level compared with DOX model group: 1 h incubation, then DOX 24 h
Experimental: as §1

H9c2 cardiomyocytes [1] = assay: Toxicity of alkaloid compound I on H9c2 cardiomyocytes (MTT colorimetric method); settings: 24 h incubation, FIG. 1
Experimental: H9c2 cells are incubated with different concentrations (0.1 μM, 1 μM, 5 μM, 10 μM, 20 μM, 40 μM, 80 μM, 160 μM) of alkaloid compounds I for 24 h, and then the toxic effects of the alkaloid compounds on cardiomyocytes are evaluated by MTT colorimetric method.

H9c2 cardiomyocytes [2] = assay: Effect on DOX-induced H9c2 cardiomyocyte toxicity (MTT colorimetric assay); settings: 1 h pre-incubation, then 2.5 μM DOX 24 h, FIG. 2
Experimental: (1) H9c2 cells are pre-incubated with alkaloid compound I for lh, then add 2.5 μM doxorubicin (DOX), incubate for 24 h. MTT colorimetric assay is used to determine the apoptotic activity of alkaloid compound I on DOX-induced cardiomyocytes and determine the optimal range of the dose concentration.

Row | Cleaved-Caspase-3 expression level compared with Con group (Cleaved-Caspase-3; DOX model group, DOX 24 h) | p-JNK expression level compared with Con group (p-JNK; DOX model group, DOX 24 h) | SMILES | Cleaved-Caspase-3 expression level compared with DOX model group (Cleaved-Caspase-3; 10 μM, 20 μM and 40 μM, 1 h incubation, then DOX 24 h) | toxic effect on H9c2 cell viability compared with Con group (H9c2 cardiomyocytes [1]; 80 μM) | toxic effect on H9c2 cell viability compared with Con group (H9c2 cardiomyocytes [1]; 0.1-40 μM) | difference from DOX model group in DOX-induced cardiomyocyte toxicity (H9c2 cardiomyocytes [2]; 5-80 μM) | inhibition of DOX-induced cardiomyocyte toxicity compared with DOX model group (H9c2 cardiomyocytes [2]; different concentration ranges) | p-JNK expression level compared with DOX model group (p-JNK; high-dose 40 μM) | p-JNK expression level compared with DOX model group (p-JNK; low-dose 10 μM) | p-JNK expression level compared with DOX model group (p-JNK; moderate-dose 20 μM)
1 | significantly higher | significantly higher | COc1cccc2c1C(=O)c1c(O)c3c(c(O)c1C2=O)C[C@@](O)(C(=O)CO)C[C@@H]3O[C@H]1C[C@H](N)[C@H](O)[C@H](C)O1 [DOX, doxorubicin, reference compound] |  |  |  |  |  |  |  | 
2 |  |  | O=C(/C=C/c1ccc(O)cc1)NCCCCO [compound I, 4-[(E)-p-coumaroylamino]butan-1-ol] | able to inhibit the elevation of Cleaved-Caspase-3 level induced by DOX to varying degrees | significantly different compared with the Con group | not statistically different from the Con group | a significant difference or a highly significant difference | all exhibit inhibition of DOX-induced cardiomyocyte toxicity | a highly significant difference | no statistically significant difference | a highly significant difference
